Assay results reported in article PMC7139479, “Insights into Interactions of Flavanones with Target Human Respiratory Syncytial Virus M2-1 Protein from STD-NMR, Fluorescence Spectroscopy, and Computational Simulations” (International Journal of Molecular Sciences, 2020).

Legend:
hRSV M2-1 protein [1] = molecular target: T1, hRSV M2-1 protein (Human respiratory syncytial virus A, UniProt P04545); assay: Fluorescence quenching of M2-1 by flavanones (double-log plot, thermodynamic analysis); format: binding, human Respiratory Syncytial Virus (hRSV A2 strain); settings: for Enthalpy change ΔH: Van't Hoff equation from Kb at 288 and 298 K
T1 construct: allowing the expression of the full-length M2-1 with N-terminal fused to a His6-tag; made in house; host or cells: Escherichia coli BL21 RIL
Procedure: The fluorescence measurements were performed on a steady-state ISS-PC1 spectrofluorimeter with temperature control (thermal bath Neslab RTE-221) and equipped with quartz cuvette of 10 mm optical path length. The excitation and emission bandwidths were set at 4 and 8 nm, respectively. The excitation wavelength was of 290 nm and the emission spectra were reported between 295 and 500 nm with 10 accumulations for each collected point. The emission spectrum was corrected for the background fluorescence from the buffer solution and for inner filter effect promoted by the flavonoids. The protein-ligand interaction measures were performed by collecting the fluorescence spectra of the protein in the absence of ligand (2 mL at 6 μM) and checking for quenching of intensities after addition of increasing concentrations of flavonoids, at 288 and 298 K (15 and 25 °C). The flavonoids’ concentrations varied from 0 to 26 μM in the final solution, with the emission of the hRSV M2-1 protein analyzed at 320 nm.
For the data analysis, it was hypothesized that the binding sites of the flavonoids on the M2-1 protein are equal and independent. Thus, the binding constant (Kb) and the number of binding sites (n) can be calculated using the following equation [46]:(2) log(F0−F/F)=n·logKb+n·log1/([LT]−(F0−F/F0)[PT]) where F0 and F are the fluorescence intensity of the M2-1 protein in the absence and in the presence of the flavonoids, respectively. [PT] and [LT] is the total concentration of M2-1 protein and ligand (flavonoids), respectively. The values of Kb and n for the M2-1/flavonoids complex are obtained from the ordinate and slope of the linear fitting from the double-log plot log((F0 − F)/F) & log(1/([LT] − ((F0 − F)/F0)[PT])), respectively.
In order to investigate the driving forces responsible for the binding of the flavonoids hesperetin and hesperidin to the M2-1 protein, the enthalpy change (ΔH) of this interaction was calculated from the Van’t Hoff equation:(3) lnKb2/Kb1=−ΔH/R(1/T2−1/T1) where Kb1 and Kb2 are binding constants at the absolute temperatures T1 and T2, which were 288 and 298 K (15 and 25 °C), respectively. R corresponds to the universal gas constant ([…]). The Gibbs free energy (ΔG) and entropy changes (ΔS) for the M2-1/flavonoids complex were calculated from the following equations:(4) ΔG=−R·T·lnKb (5) ΔS=ΔH−ΔG/T

hRSV M2-1 protein [2] = molecular target: T1, hRSV M2-1 protein; assay: STD-NMR of M2-1/flavanone binding; design: species or system human Respiratory Syncytial Virus (hRSV A2 strain); settings: 298 K, 50 µM protein, 250 µM flavonoid
Procedure: STD-NMR experiments were performed on a Bruker Avance III 600.13 MHz equipped with a triple resonance 5 mm cryoprobe, having the pulse field gradient along the Z axis. All data were analyzed with Bruker Topspin v3.5. A total concentration of 50 μM hRSV M2-1 protein in 50 mM K2HPO4/KH2PO4 buffer (pH 7.4) containing 150 mM NaCl and 1 mM DTT at 80/20% H2O/D2O was used for all measurements. The concentration of the flavonoids used in binding experiments was of 250 μM. The on- and off-resonance frequencies were set at −0.5 and 40 ppm, providing the best profile of protein saturation and STD effect. […] A total of 16 scans with 32 loop counters were collected with 4 dummy scans. For the suppression of the protein signals, it was applied a spinlock filter of 30 ms with 0.776 W. All measurements were performed at 298 K (25 °C) and it was used a flavonoid stock solution solubilized in deuterated DMSO-d6.
The STD effect ( ISTD ) on a given proton of the ligand was calculated according to the following equation [43, 44]:(1) ISTD=Ioff-resonance−Ion-resonance/I off-resonance where Ion-resonance and Ioff-resonance are the intensities of the ligand signals in the on- and off-resonance spectrum, respectively. The proton of the flavonoid with the highest STD effect (magnetization transfer maximum) was equal to 100% and the others protons were normalized according to this signal. The identification of ^1H NMR signals of the flavonoids at buffer solution [50 mM K2HPO4/KH2PO4 buffer (pH 7.4) at 80/20% H2O/D2O containing 150 mM NaCl and 1 mM DTT] was assisted by the resonance assignment from Chemical Book database (www.chamicalbook.com) under access code 520-33-2.

RSV = test system: RSV; design: method as in earlier work; settings: against RSV; ref 28 (Kaul et al., 1985); cited from earlier work

T1 sequence (P04545 whole entry, the tested form may be a part): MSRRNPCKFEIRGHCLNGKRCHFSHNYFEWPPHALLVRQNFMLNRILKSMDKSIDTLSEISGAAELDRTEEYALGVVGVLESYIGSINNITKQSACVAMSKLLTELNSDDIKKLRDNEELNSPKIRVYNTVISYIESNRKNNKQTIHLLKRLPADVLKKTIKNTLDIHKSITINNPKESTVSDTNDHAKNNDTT

SMILES | Gibbs free energy change ΔG (hRSV M2-1 protein [1]; 288 K) [kcal/mol] | Number of binding sites n (hRSV M2-1 protein [1]; 288 K) | T·ΔS (hRSV M2-1 protein [1]; 288 K) [kcal/mol] | Gibbs free energy change ΔG (hRSV M2-1 protein [1]; 298 K) [kcal/mol] | Number of binding sites n (hRSV M2-1 protein [1]; 298 K) | T·ΔS (hRSV M2-1 protein [1]; 298 K) [kcal/mol] | Enthalpy change ΔH (hRSV M2-1 protein [1]) [kcal/mol] | STD effect, 1H protons on B-ring (normalized to highest signal) (hRSV M2-1 protein [2]) [%] | STD effect, hydrogens on A-ring (normalized to highest signal) (hRSV M2-1 protein [2]) [%] | Anti-replicative activity (RSV) [%]
COc1ccc([C@@H]2CC(=O)c3c(O)cc(O[C@@H]4O[C@H](CO[C@@H]5O[C@@H](C)[C@H](O)[C@@H](O)[C@H]5O)[C@@H](O)[C@H](O)[C@H]4O)cc3O2)cc1O [HSD, Hesperidin] | -5.2 | 0.89 | 3.5 | -5.4 | 0.93 | 3.7 | -1.7 | 96 | – | –
COc1ccc([C@@H]2CC(=O)c3c(O)cc(O)cc3O2)cc1O [HST, Hesperetin] | -6.5 | 1.05 | -22.5 | -5.7 | 1.04 | -23.3 | -29.0 | 72 | 100 | 88
